In the supplement of paper PMC11628255, “Interference of metal ions on the bioluminescent signal of firefly, Renilla, and NanoLuc luciferases in high-throughput screening assays” (Frontiers in Chemistry, 2024):
± gives the standard deviation of the averaged measurements.

Each compound was assayed on firefly luciferase (FLuc) (assay: normalised percent inhibition of luminescence (vs positive and negative controls); higher = stronger inhibition). Details: metal salt concentration 0.005 mM; screening conditions buffer.
Method: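 Concentration-response (>=11 concentrations) of metal salts on purified FLuc, NLuc or RLuc luminescence in screening (SC) or 100 mM HEPES (H) buffer; salt pre-incubated with enzyme 10 min at RT, read 10 min after substrate. Normalised percent inhibition vs plate positive (PTC-124, isradipine, BTS) and DMSO negative controls; triplicate wells.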

normalised percent inhibition [%]	Compound
1.02 ± 24	[Cl][Fe][Cl] [iron(II) chloride]
28.2 ± 14	[Cl][Pt-2]([Cl])([Cl])[Cl].[K+].[K+] [potassium tetrachloroplatinate(II)]

Same assay, conditions: metal salt concentration 0.01 mM; screening conditions buffer

normalised percent inhibition [%]	Compound
85.4 ± 3.2	[Cl][Fe]([Cl])[Cl] [iron(III) chloride]
2 ± 14	[Cl][Fe][Cl] [iron(II) chloride]
32.2 ± 10	[Cl][Pt-2]([Cl])([Cl])[Cl].[K+].[K+] [potassium tetrachloroplatinate(II)]

Same assay, conditions: metal salt concentration 0.02 mM; screening conditions buffer

normalised percent inhibition [%]	Compound
95.8 ± 6.3	[Cl][Fe]([Cl])[Cl] [iron(III) chloride]
1.67 ± 19	[Cl][Fe][Cl] [iron(II) chloride]
39.4 ± 9.2	[Cl][Pt-2]([Cl])([Cl])[Cl].[K+].[K+] [potassium tetrachloroplatinate(II)]

Same assay, conditions: metal salt concentration 0.025 mM; 100 mM HEPES buffer

normalised percent inhibition [%]	Compound
99.41 ± 0.94	[Cl][Fe]([Cl])[Cl] [iron(III) chloride]
53.6 ± 2.7	[Cl][Fe][Cl] [iron(II) chloride]
39.2 ± 5.7	[Cl][Pt-2]([Cl])([Cl])[Cl].[K+].[K+] [potassium tetrachloroplatinate(II)]

Same assay, conditions: metal salt concentration 0.05 mM; 100 mM HEPES buffer

normalised percent inhibition [%]	Compound
99.62 ± 0.49	[Cl][Fe]([Cl])[Cl] [iron(III) chloride]
99.99 ± 0.87	[Cl][Fe][Cl] [iron(II) chloride]
56.4 ± 4.2	[Cl][Pt-2]([Cl])([Cl])[Cl].[K+].[K+] [potassium tetrachloroplatinate(II)]

Same assay, conditions: metal salt concentration 0.05 mM; screening conditions buffer

normalised percent inhibition [%]	Compound
82.4 ± 4.2	[Cl][Fe]([Cl])[Cl] [iron(III) chloride]
3.62 ± 24	[Cl][Fe][Cl] [iron(II) chloride]
68.7 ± 7.4	[Cl][Pt-2]([Cl])([Cl])[Cl].[K+].[K+] [potassium tetrachloroplatinate(II)]

Same assay, conditions: metal salt concentration 0.1 mM; 100 mM HEPES buffer

normalised percent inhibition [%]	Compound
100.6 ± 0.19	[Cl][Fe]([Cl])[Cl] [iron(III) chloride]
100.4 ± 0.27	[Cl][Fe][Cl] [iron(II) chloride]
79.8 ± 4.1	[Cl][Pt-2]([Cl])([Cl])[Cl].[K+].[K+] [potassium tetrachloroplatinate(II)]

Same assay, conditions: metal salt concentration 0.1 mM; screening conditions buffer

normalised percent inhibition [%]	Compound
71.9 ± 8.1	[Cl][Fe]([Cl])[Cl] [iron(III) chloride]
14.5 ± 11	[Cl][Fe][Cl] [iron(II) chloride]
86 ± 3.3	[Cl][Pt-2]([Cl])([Cl])[Cl].[K+].[K+] [potassium tetrachloroplatinate(II)]

Same assay, conditions: metal salt concentration 0.2 mM; screening conditions buffer

normalised percent inhibition [%]	Compound
95.4 ± 4.9	[Cl][Fe]([Cl])[Cl] [iron(III) chloride]
22.9 ± 12	[Cl][Fe][Cl] [iron(II) chloride]
98.8 ± 1	[Cl][Pt-2]([Cl])([Cl])[Cl].[K+].[K+] [potassium tetrachloroplatinate(II)]

Same assay, conditions: metal salt concentration 0.5 mM; 100 mM HEPES buffer

normalised percent inhibition [%]	Compound
100.3 ± 0.49	[Cl][Fe]([Cl])[Cl] [iron(III) chloride]
99.99 ± 0.63	[Cl][Fe][Cl] [iron(II) chloride]
100.5 ± 0.56	[Cl][Pt-2]([Cl])([Cl])[Cl].[K+].[K+] [potassium tetrachloroplatinate(II)]

Same assay, conditions: metal salt concentration 0.5 mM; screening conditions buffer

normalised percent inhibition [%]	Compound
100.2 ± 0.3	[Cl][Fe]([Cl])[Cl] [iron(III) chloride]
98 ± 4.6	[Cl][Fe][Cl] [iron(II) chloride]
100.5 ± 0.44	[Cl][Pt-2]([Cl])([Cl])[Cl].[K+].[K+] [potassium tetrachloroplatinate(II)]

Same assay, conditions: metal salt concentration 1 mM; 100 mM HEPES buffer

normalised percent inhibition [%]	Compound
99.6 ± 1.3	[Cl][Fe]([Cl])[Cl] [iron(III) chloride]
100.5 ± 0.31	[Cl][Fe][Cl] [iron(II) chloride]
100.2 ± 0.86	[Cl][Pt-2]([Cl])([Cl])[Cl].[K+].[K+] [potassium tetrachloroplatinate(II)]

Same assay, conditions: metal salt concentration 1 mM; screening conditions buffer

normalised percent inhibition [%]	Compound
100.6 ± 0.43	[Cl][Fe]([Cl])[Cl] [iron(III) chloride]
100.7 ± 0.28	[Cl][Fe][Cl] [iron(II) chloride]
99.57 ± 0.77	[Cl][Pt-2]([Cl])([Cl])[Cl].[K+].[K+] [potassium tetrachloroplatinate(II)]

Same assay, conditions: metal salt concentration 2.5 mM; 100 mM HEPES buffer

normalised percent inhibition [%]	Compound
100.2 ± 0.32	[Cl][Fe]([Cl])[Cl] [iron(III) chloride]
100.2 ± 0.56	[Cl][Fe][Cl] [iron(II) chloride]
100.4 ± 0.49	[Cl][Pt-2]([Cl])([Cl])[Cl].[K+].[K+] [potassium tetrachloroplatinate(II)]

Same assay, conditions: metal salt concentration 2.5 mM; screening conditions buffer

normalised percent inhibition [%]	Compound
100.6 ± 0.38	[Cl][Fe]([Cl])[Cl] [iron(III) chloride]
99.42 ± 0.97	[Cl][Fe][Cl] [iron(II) chloride]
100.7 ± 0.14	[Cl][Pt-2]([Cl])([Cl])[Cl].[K+].[K+] [potassium tetrachloroplatinate(II)]

Same assay, conditions: metal salt concentration 5 mM; 100 mM HEPES buffer

normalised percent inhibition [%]	Compound
99.84 ± 0.32	[Cl][Fe]([Cl])[Cl] [iron(III) chloride]
100.3 ± 0.41	[Cl][Fe][Cl] [iron(II) chloride]
100.4 ± 0.37	[Cl][Pt-2]([Cl])([Cl])[Cl].[K+].[K+] [potassium tetrachloroplatinate(II)]

Same assay, conditions: metal salt concentration 5 mM; screening conditions buffer

normalised percent inhibition [%]	Compound
100.5 ± 0.3	[Cl][Fe]([Cl])[Cl] [iron(III) chloride]
100.9 ± 0.84	[Cl][Fe][Cl] [iron(II) chloride]
100.8 ± 0.22	[Cl][Pt-2]([Cl])([Cl])[Cl].[K+].[K+] [potassium tetrachloroplatinate(II)]
